Measurements: patent publication US20260355171A1, “INHIBITORS AND USES THEREFOR” (priority 2022, published 2026)

Tests used:
[1] = system: primary neurons; test: Neuronal cell death in the presence of staurosporine; format: cell-based, mouse; conditions: 1 or 10 μM compound, 5 μM staurosporine
Description: Primary neurons were treated with 0.4, 1, 2, 10 or 50 μM of compound 2 or compound 22 (prepared according to Example 2). NSP5 was added to primary neurons at DIV11, and compound 2 or 22 was added 48 hours later. Cells were treated with propidium iodide 48 hours after compound addition. Cells were washed with PBS and fixed with 4% PFA. Cells were then washed and stained with DAPI. Images of cells were taken with ZEISS Axioscan 7 microscope slide scanner. Cell death was determined by Image J analysis, counting the death cell (red, PI)) vs all cells (blue, DAPI).
One hour after compound addition (1 or 10 μM of compound 2 or compound 22) neurons were treated with a cytotoxic agent (100 μM N-methyl-D-aspartate (NMDA), 100 μM H2O2 or 5 μM staurosporine). One hour after treatment with the cytotoxic agent, the media was replaced with fresh media and the neurons were incubated for 24 hours. A final concentration of 1 μM propidium iodide (PI) was added into the well and incubated for 5 mins. Cells were washed with phosphate-buffered saline (PBS) and then fixed with 4% PFA. Cells were then washed and stained with DAPI, and cell death determined as described above.

[2] = In vivo whole blood-to-plasma ratio; conditions: IV 3 mg/kg, 1 h post dose, mouse blood, n=3; read-out: B/P ratio (whole blood-to-plasma)
Description: As part of the assessment of the IV pharmacokinetics, blood was collected from mice (n=3) at 1 h post dose for the purposes of determining the whole blood-to-plasma (B/P) ratio.
Blood was collected via cardiac puncture (whilst under gaseous isoflurane anaesthesia) into tubes containing heparin. The haematocrit was determined via centrifugation [13000×g for 4 min using a Clemets® Microhematocrit centrifuge (Clements, Rydalmere, Australia) and Safecap® Plain Self-sealing Mylar Wrapped capillary tubes (Safe-Tec Clinical Products LLC, Broomall, USA)], and values ranged from 32% to 36% for blood samples across the three mice.
Each blood aliquot (25 μL) was collected and matrix matched with an equivalent volume of blank plasma. The remainder of the blood sample was centrifuged and 1×25 μL plasma aliquot was collected and matrix matched with an equivalent volume of blank blood. Samples were frozen on dry ice and subsequently stored at −80 °C until analysis by LC-MS. The B/P ratio was calculated on the basis of the LC-MS response of compound 22 in blood and plasma following centrifugation of whole blood and the average B/P ratio (n=3 mice) is reported.

[3] = Unbound fraction (fu) in mouse plasma; format: in vitro ADME
[4] = Stability in brain and lung homogenates; format: in vitro ADME, mouse; conditions: sample processing (15 min), EDTA/potassium fluoride
Description: Tissue: Pre-weighed tissue samples (brain and lung) were homogenised using a gentleMACS™ Octo Dissociator (Miltenyi Biotec, Macquarie Park, Australia) in buffer containing an EDTA/potassium fluoride solution (0.1 M/4 mg/mL) as a stabilisation cocktail to minimise the potential for ex vivo degradation (3 mL cocktail/g tissue). The tissue homogenate was briefly centrifuged (RCF=79×g) for 10 seconds to separate the foam layer before transferring an aliquot of the tissue homogenate (200 μL) to a fresh Eppendorf tube for sample extraction. Calibration standards were prepared by spiking blank brain and lung homogenate (200 μL) with the solution standards (10 μL) and the internal standard (10 μL). Study samples (for all tissue types) were similarly prepared, except that acetonitrile (10 μL) was added instead of solution standards to maintain the same volume. Protein precipitation was carried out by the addition of a 3-fold volume of acetonitrile, followed by vortex mixing and centrifugation (RCF=9391×g) for 3 min to recover the supernatant for analysis.

[5] = system: PHP.B hSyn-NSP5-V5 adeno-associated virus; test: Weight loss after AAV injection; format: in vivo, mouse; conditions: 10 mg/kg daily, vs Paxlovid and vehicle; significant at day 19 to end
Description: In vivo testing was performed on 5-month-old female C57BL/6 wildtype mice injected intravenously with PHP.B hSyn-NSP5-V5 adeno-associated virus (AAV) and treated daily with compound 22 (10 mg/kg), Paxlovid (nirmatrelvir/ritonavir) (10 mg/kg nirmatrelvir: 3.33 mg/kg ritonavir) or a vehicle control (n=10 per group).
Weight loss was monitored over a 21-day period post injection with the AAV.

[6] = system: primary neurons; test: Cytotoxicity / neuronal cell death in the presence of NSP5 (PI/DAPI)

SMILES: NC(=O)C1CCN(c2ncccc2CNCc2cccc3[nH]ccc23)CC1 [Compound 22]
- Protection from staurosporine-induced neurotoxicity [1]: did not protect
- blood plasma ratio at 1 h [2]: 1.4
- fraction unbound [3]: 0.547
- Stability in brain and lung homogenates [4]: stable
- Weight loss from 17 days post injection [5]: weight loss was less severe
- Reduction of neuronal cell death caused by NSP5 ([6]; 0.4, 1, 2, 10 or 50 μM, 48 hours): selectively reduced neuronal cell death caused by NSP5
- Cell death caused by compound ([6]; therapeutic concentrations (nM to low μM)): did not cause any cell death
